Experimental data taken from patent US20090215732A1, “COMBINATION OF COMPOUNDS, WHICH CAN BE USED IN THE TREATMENT OF RESPIRATORY DISEASES, ESPECIALLY CHRONIC OBSTRUCTIVE PULMONARY DISEASE (COPD) AND ASTHMA” (priority 2005, published 2009).

Experiment: Estimated solubility of the salt in organic solvents
Assay type: physicochemical
Method: (b) The Form B salt described in (a) above was also prepared by dissolving, in a vial, 20% w of a sample of the benzoate salt prepared by the method of Example 1(b) (Form A) in a solvent such as methanol (>20 mg/ml), ethanol (>20 mg/ml), n-propanol (>20 mg/ml), isopropanol (8.5 mg/ml) or acetone (9.6 mg/ml). The figures in brackets indicate the estimated solubility of the salt in these solvents. The vial was then sealed and the suspension was homogenised at ambient temperature (20° C.) using a magnet. Stirring and temperature were maintained for a period of at least 7 days after which time a sample of the material obtained was dried and tested by XRPD. XRPD confirmed that there had been complete transformation of Form A to Form B.
(a) Form B was prepared by dissolving, in a vial, 20% w of a sample of the furoate salt prepared by the method of Example 1(b) (Form A) in a solvent such as ethanol (16 mg/ml) or 2-butanol (8 mg/ml). The figures in brackets indicate the estimated solubility of the salt in these solvents. The vial was then sealed and the suspension was homogenised at ambient temperature (20° C.) using a magnet. Stirring and temperature were maintained for a period of at least 7 days after which time a sample of the material obtained was dried and tested by XRPD. XRPD confirmed that there had been complete transformation of Form A to Form B.

Row | SMILES | estimated solubility of the salt (solvent acetone) [mg/mL] | estimated solubility of the salt (solvent ethanol) [mg/mL] | estimated solubility of the salt (solvent isopropanol) [mg/mL] | estimated solubility of the salt (solvent methanol) [mg/mL] | estimated solubility of the salt (solvent n-propanol) [mg/mL] | estimated solubility of the salt (solvent 2-butanol) [mg/mL]
1 | CC(=O)Nc1ccc(O)cc1OC[C@@](C)(O)CNC1CCN(Cc2ccc(Cl)cc2)CC1.O=C(O)c1ccccc1 [Example 1(b), N-{2-[((2S)-3-{[1-(4-chlorobenzyl)piperidin-4-yl]amino}-2-hydroxy-2-methylpropyl)oxy]-4-hydroxyphenyl}acetamide benzoate (1:1 salt), Form A] | 9.6 | > 20 | 8.5 | > 20 | > 20 | –
2 | CC(=O)Nc1ccc(O)cc1OC[C@@](C)(O)CNC1CCN(Cc2ccc(Cl)cc2)CC1.O=C(O)c1ccco1 [Example 1(c), N-{2-[((2S)-3-{[1-(4-chlorobenzyl)piperidin-4-yl]amino}-2-hydroxy-2-methylpropyl)oxy]-4-hydroxyphenyl}acetamide furoate (1:1 salt), Form A] | – | 16 | – | – | – | 8
